{"source": "paper PMC6679423", "about": "(International Journal of Molecular Sciences, 2019)", "format_in_all_cases": "in vitro ADME", "key": {"[1]": {"test_system": "human hepatic microsomes", "assay": "Correlation of CYP- and FMO-linked activities with vandetanib metabolite formation in human hepatic microsomes", "details": "12 human liver microsomal samples; for Correlation coefficient (r) of metabolite amount with CYP2B6 activity: (S)-mephenytoin-N-demethylase; for Correlation coefficient (r) of metabolite amount with CYP2A6 activity: coumarine-7-hydroxylase; for Correlation coefficient (r) of metabolite amount with CYP2C8 activity: paclitaxel-6α-hydroxylase; for Correlation coefficient (r) of metabolite amount with CYP3A4 activity: testosterone-6β-hydroxylase", "experimental": "(§1) Vandetanib was from LC Laboratories (Woburn, MA, USA). Ketoconazole, NADPH, methimazol and other chemicals were all purchased from Sigma-Aldrich (St. Louis, MO, USA). The purity of all chemicals met the standards of American Chemical Society, unless noted otherwise. All animal experiments were conducted in accordance with the Regulations for the Care and Use of Laboratory Animals (311/1997, Ministry of Agriculture, Czech Republic), which follows the Declaration of Helsinki. Male Wistar rats (~125–150 g; AnLab, Czech Republic), male C57BL/6 mice ([…]; CXR Bioscience Ltd., Dundee, UK), and male New Zealand rabbits (2.5–3 kg; AnLab, Czech Republic) were employed as animal models. Animals were placed in cages in temperature- and humidity-controlled rooms, acclimatized for five days and maintained at 22 °C with a 12 h light/dark period. Standardized diet and water were provided ad libitum. Rats, mice and rabbits used to prepare microsomal fraction from untreated animals were sacrificed by cervical dislocation, livers snap-frozen in liquid nitrogen and stored at −80 °C until further processing (see below). For controls, livers of the animals were removed immediately after sacrifice, divided into small pieces (~1 g), snap-frozen in liquid nitrogen, and stored at −80 °C until isolation of microsomal fractions. Pooled microsomes were used for all in vitro experiments in the present study and prepared from 10 livers/group for all animal species following established protocols. Microsomal fractions were stored at −80 °C until analysis. Protein concentrations in the microsomal fractions were assessed using the bicinchoninic acid protein assay with bovine serum albumin as a standard. Male human hepatic microsomes (pooled sample) (sample LOT: 3043885) were from Gentest Corp. (Woburn, MA, USA). Microsomes from livers of twelve human donors were obtained from Gentest Corp. (Woburn, MA, USA) (cat. no. HG43–1, HG103, HG74, HG93, HG24, HG27, HG23, HG32, HK31, HK34, HG03, and HG42). Each human microsomal sample has been characterized for CYP, FMO and protein contents and specific CYP activities by Gentest Corp. We reanalyzed each microsomal preparation for specific CYP, NADPH:CYP reductase (POR) and FMO activities by assays described in the protocols of Gentest Corp. Our data were similar to those reported by Gentest Corp. in their specification sheets. The content of CYP, specific CYP and FMO activities in each human hepatic microsomes [phenacetin-O-deethylation (CYP1A2), coumarin-7-hydroxylation (CYP2A6), (S)-mephenytoin-N-demethylase (CYP2B6), paclitaxel-6α-hydroxylation (CYP2C8), diclofenac-4’-hydroxylation (CYP2C9), (S)-mephenytoin-4′-hydroxylation (CYP2C19), bufuralol-1’-hydroxylation (CYP2D6), chlorzoxazone-6-hydroxylation (CYP2E1), testosterone-6β-hydroxylation (CYP3A4), lauric acid-12-hydroxylation (CYP4A), methyl-p-tolyl sulfide oxidase (FMO)] are shown in Table 2. Human recombinant enzymes were used in the forms of Supersomes™ and obtained from Gentest Corp. In Supersomes™ microsomal fractions were isolated from insect cells that are transfected with baculovirus constructs containing cDNA of human CYP enzymes (CYP1A1/2, 1B1, 2A6, 2B6, 2C8/9/18/19/, 2D6, 2E1, 3A4). These Supersomes™ also express NADPH:CYP oxidoreductase (POR). However, because they are microsomes (particles of broken endoplasmic reticulum), other enzymes (proteins) of the endoplasmic reticulum membrane (like NADH:cytochrome b5 reductase and cytochrome b5) are also expressed at basal levels in these Supersomes™. We also utilized Supersomes™ which over-expressed cytochrome b5, in a molar ratio of CYP to cytochrome b5 of 1 to 5. In Supersomes™ where cytochrome b5 was not over-expressed (see above) pure cytochrome b5 was added to reach a molar ratio of CYP to cytochrome b5 of 1 to 5. Reconstitution of Supersomes™ with purified cytochrome b5 was performed as described previously. […]"}, "[2]": {"test_system": "human liver microsomes", "assay": "Vandetanib metabolite formation by hepatic microsomes of 12 human donors"}, "[3]": {"test_system": "human liver microsomes", "assay": "Vandetanib metabolite formation by hepatic microsomes of 12 human donors", "experimental": "as §1", "remark": "listed apart in the source"}, "[4]": {"target": "T1, human recombinant CYP2D6 (Homo sapiens, UniProt P10635)", "T1 construct": "purchased Gentest Corp; host or cells: insect cells (baculovirus)", "T1 sequence (P10635 whole entry)": "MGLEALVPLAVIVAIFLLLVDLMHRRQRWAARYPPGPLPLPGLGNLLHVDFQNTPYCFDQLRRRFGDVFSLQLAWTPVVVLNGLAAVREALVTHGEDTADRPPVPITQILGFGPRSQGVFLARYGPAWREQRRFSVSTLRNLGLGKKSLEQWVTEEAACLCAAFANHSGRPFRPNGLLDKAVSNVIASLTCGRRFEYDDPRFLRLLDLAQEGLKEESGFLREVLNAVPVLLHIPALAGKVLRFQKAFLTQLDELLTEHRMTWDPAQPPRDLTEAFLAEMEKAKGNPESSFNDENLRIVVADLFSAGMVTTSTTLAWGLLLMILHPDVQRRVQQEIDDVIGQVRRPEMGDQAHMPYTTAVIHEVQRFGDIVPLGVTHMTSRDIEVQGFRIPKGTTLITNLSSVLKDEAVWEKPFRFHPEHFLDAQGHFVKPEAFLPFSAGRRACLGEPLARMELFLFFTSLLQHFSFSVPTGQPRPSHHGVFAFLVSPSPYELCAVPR", "assay": "Vandetanib oxidation by human recombinant CYP2D6 (Supersomes)", "experimental": "The purity of all chemicals met the standards of American Chemical Society, unless noted otherwise. […] Animals were placed in cages in temperature- and humidity-controlled rooms, acclimatized for five days and maintained at 22 °C with a 12 h light/dark period. Standardized diet and water were provided ad libitum. Rats, mice and rabbits used to prepare microsomal fraction from untreated animals were sacrificed by cervical dislocation, livers snap-frozen in liquid nitrogen and stored at −80 °C until further processing (see below). For controls, livers of the animals were removed immediately after sacrifice, divided into small pieces (~1 g), snap-frozen in liquid nitrogen, and stored at −80 °C until isolation of microsomal fractions. Pooled microsomes were used for all in vitro experiments in the present study and prepared from 10 livers/group for all animal species following established protocols. Microsomal fractions were stored at −80 °C until analysis. Protein concentrations in the microsomal fractions were assessed using the bicinchoninic acid protein assay with bovine serum albumin as a standard. […] Microsomes from livers of twelve human donors were obtained from Gentest Corp. (Woburn, MA, USA) (cat. no. HG43–1, HG103, HG74, HG93, HG24, HG27, HG23, HG32, HK31, HK34, HG03, and HG42). […]"}}, "note": "Marks after values point to notes of the source that are not given here."}
{"compound": "COc1cc2c(Nc3ccc(Br)cc3F)ncnc2cc1OCC1CCNCC1", "note": "[N-desmethylvandetanib]", "values": [{"measurement": "Correlation coefficient (r) of metabolite amount with Cyt b5", "setting": "[1]", "result": "−0.114"}, {"measurement": "Correlation coefficient (r) of metabolite amount with POR", "setting": "[1]", "result": 0.700}, {"measurement": "Correlation coefficient (r) of metabolite amount with Total CYPs", "setting": "[1]", "result": "0.786 **"}, {"measurement": "Correlation coefficient (r) of metabolite amount with CYP2C19 activity", "setting": "[1]; (S)-mephenytoin-4′-hydroxylase", "result": "−0.168"}, {"measurement": "Correlation coefficient (r) of metabolite amount with CYP2B6 activity", "setting": "[1]", "result": 0.826}, {"measurement": "Correlation coefficient (r) of metabolite amount with CYP2B6 activity", "setting": "[1]; listed as M1", "result": "0.826 ***"}, {"measurement": "Correlation coefficient (r) of metabolite amount with CYP2D6 activity", "setting": "[1]; bufuralol-1′-hydroxylase", "result": 0.165}, {"measurement": "Correlation coefficient (r) of metabolite amount with CYP2E1 activity", "setting": "[1]; chlorzoxazone-6-hydroxylase", "result": 0.043}, {"measurement": "Correlation coefficient (r) of metabolite amount with CYP2A6 activity", "setting": "[1]", "result": 0.778}, {"measurement": "Correlation coefficient (r) of metabolite amount with CYP2A6 activity", "setting": "[1]; listed as M1", "result": "0.778 **"}, {"measurement": "Correlation coefficient (r) of metabolite amount with CYP2C9 activity", "setting": "[1]; diclofenac-4′-hydroxylase", "result": "−0.034"}, {"measurement": "Correlation coefficient (r) of metabolite amount with FMO activity", "setting": "[1]; methyl-p-tolyl sulfide oxidase", "result": 0.270}, {"measurement": "Correlation coefficient (r) of metabolite amount with CYP2C8 activity", "setting": "[1]", "result": 0.747}, {"measurement": "Correlation coefficient (r) of metabolite amount with CYP2C8 activity", "setting": "[1]; listed as M1", "result": "0.747 **"}, {"measurement": "Correlation coefficient (r) of metabolite amount with CYP1A2 activity", "setting": "[1]; phenacetin-O-deethylase", "result": 0.018}, {"measurement": "Correlation coefficient (r) of metabolite amount with CYP3A4 activity", "setting": "[1]", "result": 0.984}, {"measurement": "Correlation coefficient (r) of metabolite amount with CYP3A4 activity", "setting": "[1]; listed as M1", "result": "0.984 ***"}, {"measurement": "N-desmethylvandetanib (M1) formed", "setting": "[2]; human hepatic microsomal sample HK23", "result": "4.137 peak area/(mg protein × min)"}, {"measurement": "N-desmethylvandetanib (M1) formed", "setting": "[2]; human hepatic microsomal sample HK27", "result": "1.762 peak area/(mg protein × min)"}, {"measurement": "N-desmethylvandetanib (M1) formed", "setting": "[3]; human hepatic microsomal sample HG03", "result": "3.639 peak area/(mg protein × min)"}, {"measurement": "N-desmethylvandetanib (M1) formed", "setting": "[3]; human hepatic microsomal sample HG24", "result": "1.698 peak area/(mg protein × min)"}, {"measurement": "N-desmethylvandetanib (M1) formed", "setting": "[3]; human hepatic microsomal sample HG32", "result": "0.870 peak area/(mg protein × min)"}, {"measurement": "N-desmethylvandetanib (M1) formed", "setting": "[3]; human hepatic microsomal sample HG42", "result": "8.887 peak area/(mg protein × min)"}, {"measurement": "N-desmethylvandetanib (M1) formed", "setting": "[3]; human hepatic microsomal sample HG43", "result": "1.830 peak area/(mg protein × min)"}, {"measurement": "N-desmethylvandetanib (M1) formed", "setting": "[3]; human hepatic microsomal sample HG74", "result": "0.714 peak area/(mg protein × min)"}, {"measurement": "N-desmethylvandetanib (M1) formed", "setting": "[3]; human hepatic microsomal sample HG93", "result": "0.966 peak area/(mg protein × min)"}, {"measurement": "N-desmethylvandetanib (M1) formed", "setting": "[3]; human hepatic microsomal sample HG103", "result": "1.021 peak area/(mg protein × min)"}, {"measurement": "N-desmethylvandetanib (M1) formed", "setting": "[3]; human hepatic microsomal sample HK31", "result": "4.124 peak area/(mg protein × min)"}, {"measurement": "N-desmethylvandetanib (M1) formed", "setting": "[3]; human hepatic microsomal sample HK34", "result": "3.193 peak area/(mg protein × min)"}, {"measurement": "effect of cytochrome b5 on N-desmethylvandetanib formation", "setting": "[4]; CYP2D6 with vs without cytochrome b5", "result": "essentially no such effect"}, {"measurement": "contribution of CYP2D6 to N-desmethylvandetanib formation in human liver", "setting": "[4]; without consideration of cytochrome b5", "result": "~ 1.7%"}]}
